From patent US9265709B2, “Use of peptides as antidandruff agents” (L'OREAL, priority 2009, dated 2016)
Ends that are not written are not given here.

Tested on: M. furfur
Assay: Antimicrobial activity (MIC) micromethod in microplates on microorganisms responsible for dandruff
Type: cell-based
Settings: Sabouraud medium with 10% olive oil, 24 to 48 hours at 32.5° C., OD 620 nm vs control without peptide, peptide tested at 0.1%, 0.25%, 0.5% and 1%
Procedure: The antimicrobial activity of the peptides used according to the invention may be evaluated by measuring their minimum inhibitory concentration (MIC). Decreasing concentrations of peptides are contacted with standardised inoculum of microorganisms in a culture medium suitable for growth of said microorganisms in exponential growth phase. After incubation at the suitable temperature for the microorganism, the growth is evaluated by an OD (620 nm) measurement. […] The MIC obtained may be compared with the same measurement performed only with solvent (without the peptide) or with a compound of known antibiotic activity. This test may also be used to test the selectivity of the peptides used. This method can be used to determine the effect of the test peptide on a beneficial microorganism of the microbial flora of the scalp such as Staphylococcus epidermidis. Peptides that give on the strains responsible for desquamative disorders of the hair and/or the scalp (e.g., M. furfur) better inhibition than on the beneficial strains (e.g., S. epidermidis) will be selected.
The test has been carried using a micromethod in microplates. […]
After incubation of the microplate from 24 to 48 hours at 32.5° C., optical density at 620 nm has been measured. […]

Substance	MIC
FLSLIPHAINAVSAIAKHF-NH2 (listed as Phyllomedusa azurea) [PS-7]	<0.1%
GLWSTIKNVGKEAAIAAGKAALGAL-NH2 (listed as Phyllomedusa hypochondrialis) [DPh-1]	<0.1%
